Results published in ChEMBL document CHEMBL1201862, “PubChem BioAssay data set” (2004).
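Each compound was tested at five concentrations against cells in 96-well plates for 48 hours. GI50 = concentration required for 50% inhibition of growth.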 Activity calls are given as the source filed them. No stated cut-off is given here; in the data, active = GI50 up to about 1.1 µM and inactive = higher.

Key:
Experiment in all cases: NCI-60 cell line screen, 48 h
SK-OV-3 = tested on: SK-OV-3
NCI-H23 = tested on: NCI-H23
786-0 = tested on: 786-0
OVCAR-4 = tested on: OVCAR-4
UO-31 = tested on: UO-31
U-251 = tested on: U-251
NCI-H460 = tested on: NCI-H460
NCI-H522 = tested on: NCI-H522
OVCAR-5 = tested on: OVCAR-5
SN12C = tested on: SN12C
CCRF-CEM = tested on: CCRF-CEM
NCI-H226 = tested on: NCI-H226
SW-620 = tested on: SW-620
COLO 205 = tested on: COLO 205
T47D = tested on: T47D
RXF 393 = tested on: RXF 393
SK-MEL-28 = tested on: SK-MEL-28
UACC-257 = tested on: UACC-257
EKVX = tested on: EKVX
SF-295 = tested on: SF-295
PC-3 = tested on: PC-3
A498 = tested on: A498
SK-MEL-2 = tested on: SK-MEL-2
SK-MEL-5 = tested on: SK-MEL-5
A549 = tested on: A549
BT-549 = tested on: BT-549
NCI/ADR-RES = tested on: NCI/ADR-RES
UACC-62 = tested on: UACC-62
KM12 = tested on: KM12
SR = tested on: SR
MDA-MB-435 = tested on: MDA-MB-435
MDA-MB-231 = tested on: MDA-MB-231
SF-539 = tested on: SF-539
CAKI-1 = tested on: CAKI-1
LOX IMVI = tested on: LOX IMVI
HOP-92 = tested on: HOP-92
HCT-116 = tested on: HCT-116
SNB-75 = tested on: SNB-75
Malme-3M = tested on: Malme-3M
IGROV-1 = tested on: IGROV-1
TK-10 = tested on: TK-10
M14 = tested on: M14
HT-29 = tested on: HT-29
SNB-19 = tested on: SNB-19
Hs-578T = tested on: Hs-578T
DU-145 = tested on: DU-145
SF-268 = tested on: SF-268
OVCAR-3 = tested on: OVCAR-3
MOLT-4 = tested on: MOLT-4
RPMI-8226 = tested on: RPMI-8226
ACHN = tested on: ACHN
K562 = tested on: K562
OVCAR-8 = tested on: OVCAR-8
MCF7 = tested on: MCF7
HOP-62 = tested on: HOP-62
HCT-15 = tested on: HCT-15
HL-60 = tested on: HL-60
HCC 2998 = tested on: HCC 2998

Q: Which results are given for `Nc1nc(-c2ccccc2/N=N/N2CCCC2)nc2ccccc12`?
A: GI50 (SK-OV-3): 9.1 µM (inactive); GI50 (NCI-H23): 2.2 µM (inactive); GI50 (786-0): 2.38 µM (inactive); GI50 (OVCAR-4): 5.96 µM (inactive); GI50 (UO-31): 1.57 µM (inactive); GI50 (U-251): 2.67 µM (inactive); GI50 (NCI-H460): 2.92 µM (inactive); GI50 (NCI-H522): 4.28 µM (inactive); GI50 (OVCAR-5): 1.86 µM (inactive); GI50 (SN12C): 1.59 µM (inactive); GI50 (CCRF-CEM): 3.07 µM (inactive); GI50 (NCI-H226): 2.22 µM (inactive); GI50 (SW-620): 1.74 µM (inactive); GI50 (COLO 205): 2.56 µM (inactive); GI50 (T47D): 2.4 µM (inactive); GI50 (RXF 393): 5.73 µM (inactive); GI50 (SK-MEL-28): 12.2 µM (inactive); GI50 (UACC-257): 3.51 µM (inactive); GI50 (EKVX): 10.8 µM (inactive); GI50 (SF-295): 2.32 µM (inactive); GI50 (PC-3): 3.7 µM (inactive); GI50 (A498): 7.76 µM (inactive); GI50 (SK-MEL-2): 13.2 µM (inactive); GI50 (SK-MEL-5): 4.5 µM (inactive); GI50 (A549): 2.62 µM (inactive); GI50 (BT-549): 11.8 µM (inactive); GI50 (NCI/ADR-RES): 2.99 µM (inactive); GI50 (UACC-62): 1.77 µM (inactive); GI50 (KM12): 2.13 µM (inactive); GI50 (SR): 0.413 µM (active); GI50 (MDA-MB-435): 2.56 µM (inactive); GI50 (MDA-MB-231): 1.58 µM (inactive); GI50 (SF-539): 2.39 µM (inactive); GI50 (CAKI-1): 4.14 µM (inactive); GI50 (LOX IMVI): 1.75 µM (inactive); GI50 (HOP-92): 8 µM (inactive); GI50 (HCT-116): 1.02 µM (active); GI50 (SNB-75): 11.5 µM (inactive); GI50 (Malme-3M): 3.28 µM (inactive); GI50 (IGROV-1): 2.91 µM (inactive); GI50 (TK-10): 3.63 µM (inactive); GI50 (M14): 3.08 µM (inactive); GI50 (HT-29): 2.38 µM (inactive); GI50 (SNB-19): 3.69 µM (inactive); GI50 (Hs-578T): 3.39 µM (inactive); GI50 (DU-145): 4.93 µM (inactive); GI50 (SF-268): 6.7 µM (inactive); GI50 (OVCAR-3): 1.85 µM (inactive); GI50 (MOLT-4): 1.16 µM (inactive); GI50 (RPMI-8226): 2 µM (inactive); GI50 (ACHN): 2.52 µM (inactive); GI50 (K562): 3.05 µM (inactive); GI50 (OVCAR-8): 1.45 µM (inactive); GI50 (MCF7): 3.48 µM (inactive); GI50 (HOP-62): 1.73 µM (inactive); GI50 (HCT-15): 2.7 µM

Q: For `CO[C@]12C[C@H](CNC(=O)c3cc(Br)c(Br)[nH]3)O[C@H]1NC(=O)N2`, which GI50 (SK-OV-3) is on record?
A: > 100 µM (inactive)

Q: What about the GI50 (NCI-H23) of the same compound?
A: > 100 µM (inactive)

Q: And the GI50 (786-0)?
A: > 100 µM (inactive)

Q: And the GI50 (OVCAR-4)?
A: > 100 µM (inactive)

Q: And the GI50 (UO-31)?
A: > 100 µM (inactive)

Q: And the GI50 (U-251)?
A: > 100 µM (inactive)

Q: And the GI50 (NCI-H460)?
A: > 100 µM (inactive)

Q: What about the GI50 (NCI-H522) of the same compound?
A: > 100 µM (inactive)

Q: What about the GI50 (OVCAR-5) of the same compound?
A: > 100 µM (inactive)

Q: And the GI50 (SN12C)?
A: > 100 µM (inactive)

Q: What about the GI50 (CCRF-CEM) of the same compound?
A: 0.548 µM (active)

Q: And the GI50 (NCI-H226)?
A: > 100 µM (inactive)

Q: And the GI50 (SW-620)?
A: > 100 µM (inactive)

Q: What about the GI50 (COLO 205) of the same compound?
A: > 100 µM (inactive)

Q: And the GI50 (T47D)?
A: > 100 µM (inactive)

Q: And the GI50 (HL-60)?
A: > 100 µM (inactive)

Q: What about the GI50 (SK-MEL-28) of the same compound?
A: > 100 µM (inactive)

Q: What about the GI50 (UACC-257) of the same compound?
A: > 100 µM (inactive)

Q: And the GI50 (EKVX)?
A: > 100 µM (inactive)

Q: What about the GI50 (SF-295) of the same compound?
A: > 100 µM (inactive)

Q: And the GI50 (PC-3)?
A: > 100 µM (inactive)

Q: And the GI50 (A498)?
A: > 100 µM (inactive)

Q: What about the GI50 (SK-MEL-2) of the same compound?
A: > 100 µM (inactive)

Q: And the GI50 (SK-MEL-5)?
A: > 100 µM (inactive)

Q: And the GI50 (A549)?
A: > 100 µM (inactive)

Q: What about the GI50 (BT-549) of the same compound?
A: > 100 µM (inactive)

Q: What about the GI50 (NCI/ADR-RES) of the same compound?
A: > 100 µM (inactive)

Q: What about the GI50 (UACC-62) of the same compound?
A: > 100 µM (inactive)

Q: What about the GI50 (KM12) of the same compound?
A: > 100 µM (inactive)

Q: What about the GI50 (SR) of the same compound?
A: > 100 µM (inactive)

Q: What about the GI50 (MDA-MB-435) of the same compound?
A: > 100 µM (inactive)

Q: What about the GI50 (MDA-MB-231) of the same compound?
A: > 100 µM (inactive)

Q: And the GI50 (SF-539)?
A: > 100 µM (inactive)

Q: And the GI50 (CAKI-1)?
A: > 100 µM (inactive)

Q: What about the GI50 (LOX IMVI) of the same compound?
A: > 100 µM (inactive)

Q: What about the GI50 (HOP-92) of the same compound?
A: 25.2 µM (inactive)

Q: And the GI50 (HCT-116)?
A: > 100 µM (inactive)

Q: And the GI50 (SNB-75)?
A: > 100 µM (inactive)

Q: What about the GI50 (Malme-3M) of the same compound?
A: > 100 µM (inactive)

Q: And the GI50 (IGROV-1)?
A: > 100 µM (inactive)

Q: And the GI50 (TK-10)?
A: > 100 µM (inactive)

Q: And the GI50 (M14)?
A: > 100 µM (inactive)

Q: What about the GI50 (HT-29) of the same compound?
A: > 100 µM (inactive)

Q: What about the GI50 (SNB-19) of the same compound?
A: > 100 µM (inactive)

Q: And the GI50 (Hs-578T)?
A: > 100 µM (inactive)

Q: What about the GI50 (DU-145) of the same compound?
A: > 100 µM (inactive)

Q: What about the GI50 (SF-268) of the same compound?
A: > 100 µM (inactive)

Q: What about the GI50 (OVCAR-3) of the same compound?
A: > 100 µM (inactive)

Q: What about the GI50 (MOLT-4) of the same compound?
A: > 100 µM (inactive)

Q: And the GI50 (HCC 2998)?
A: > 100 µM (inactive)

Q: And the GI50 (RPMI-8226)?
A: > 100 µM (inactive)

Q: And the GI50 (ACHN)?
A: > 100 µM (inactive)

Q: And the GI50 (K562)?
A: > 100 µM (inactive)

Q: What about the GI50 (OVCAR-8) of the same compound?
A: > 100 µM (inactive)

Q: What about the GI50 (MCF7) of the same compound?
A: > 100 µM (inactive)

Q: What about the GI50 (HOP-62) of the same compound?
A: > 100 µM (inactive)

Q: What about the GI50 (HCT-15) of the same compound?
A: > 100 µM
